Test results as given in US20100015050A1, “PEG AND TARGETING LIGANDS ON NANOPARTICLE SURFACE” (WAYNE STATE UNIVERSITY, priority 2006, published 2010).

Legend:
NCl/ADR-RES cells [1] = experiment: nanoparticle uptake/retention and paclitaxel accumulation in cells (HPLC); assay type: cell-based; conditions: inhibition of P-gp by verapamil
Method: NCl/ADR-RES cells were plated in 24-well plates at a density of 50,000 cells/well/1 mL. […] The medium was changed on day 2 and every other day thereafter, and no further dose of drug was added. Cells were harvested at different time intervals, and lysed using cell culture lysis reagent (Promega).
In order to verify that differences in drug accumulation are not due to differences in nanoparticle uptake/retention in cells, the inventors labeled nanoparticles with 6-coumarin, and followed the cell uptake and retention of nanoparticles and paclitaxel in NCl/ADR-RES cells.

MCF-7 xenografts = experiment: tumor growth and survival after single-dose paclitaxel treatment; assay type: in vivo; conditions: 400 μg paclitaxel/animal, nude mice
From the text: Effect of a single-dose paclitaxel treatment on tumor growth was investigated in nude mice bearing MCF-7 xenografts.

NCl/ADR-RES cells [2] = experiment: MTS cytotoxicity in drug-resistant, P-gp overexpressing cells; assay type: cell-based; conditions: paclitaxel 100 nM in solution or in nanoparticles, no verapamil
Method: (§1) Drug sensitive (MCF-7) and drug-resistant (NCl/ADR-RES) cells were plated in 96-well plates at a density of 5000 cells/well/0.1 mL. Cells were then treated with paclitaxel (Pac) in solution (100 nM) or equivalent in nanoparticles (NP). […] Untreated cells and cells treated with empty nanoparticles were used as controls. Cytotoxicity was followed using a standard MTS assay (see Methods). […] Data as mean±SD, n=6 wells. * P<0.05.
NCl/ADR-RES cells were plated in 96-well plates at a density of 5000 cells/well/0.1 mL. Cells were then treated with paclitaxel (Pac, 100 nM) in nanoparticles (NP). […] Untreated cells were used as controls. Cytotoxicity was followed as a function of time using a standard MTS assay. The medium was changed on day 2 and every other day thereafter, and no further dose of drug was added.
Drug-resistant (NCl/ADR-RES) cells were plated in 96-well plates at a density of 5000 cells/well/0.1 mL. Cells were then treated with dual-agent nanoparticles releasing 0.3 ng/day/8 μg siRNA and 7 ng/day/8 μg paclitaxel. Cells treated with non-targeted (scrambled) siRNA and untreated cells were used as controls. Cytotoxicity was followed using a standard MTS assay. The medium was changed on day 2 and every other day thereafter, and no further dose of drug was added. Data as mean±SD, n=6 wells. * P<0.05 compared to controls. […]

MCF-7 cells = experiment: MTS cytotoxicity of paclitaxel treatments in drug-sensitive cells; assay type: cell-based; conditions: paclitaxel 100 nM in solution or equivalent in nanoparticles; compared to untreated cells
Method: as §1
The inventors initially investigated the efficacy of paclitaxel encapsulated in nanoparticles in drug-sensitive MCF-7 cells.

[3] = test system: vascular smooth muscle cells; experiment: MTS cytotoxicity of dexamethasone formulations; assay type: cell-based; conditions: nanoparticles 600 μg/mL or drug solution 25 μg/mL, single dose
Method: Nanoparticle formulations with different drug release rates were formulated by emulsion solvent evaporation technique. […] Data represented as mean±SD, n=3. The two formulations were investigated for cytotoxicity in vascular smooth muscle cells. Cells were plated in 96-well plates at a density of 5000 cells/well/0.1 mL. A nanoparticle suspension prepared in regular serum-containing growth medium (600 μg/mL, 0.1 mL) was added to each well. Drug solution in growth medium (25 μg/mL) was also added to some of the wells. Untreated cells were used as controls. Cytotoxicity was determined using a standard MTS assay. The medium was changed on day 2 and every other day thereafter, and no further dose of drug was added. Data as mean±SD, n=6. […] Data represented as mean±SEM, n=3. Cells were plated at 100,000 cells/well/2 ml in 6-well plates. Drug encapsulated in nanoparticles (600 μg of nanoparticles/ml, 2 ml) or in solution (25 μg/ml, 2 ml) was added to each well. Medium was changed on day 2 and every other day thereafter, and no further dose of the drug was added.

COc1ccc(CCN(C)CCCC(C#N)(c2ccc(OC)c(OC)c2)C(C)C)cc1OC (stereo not drawn) [verapamil]
effect on uptake or retention of nanoparticles (NCl/ADR-RES cells [1]): did not significantly increase the uptake or retention of nanoparticles

CC(=O)O[C@H]1C(=O)[C@@]2(C)[C@H]([C@H](OC(=O)c3ccccc3)[C@]3(O)C[C@H](OC(=O)[C@H](O)[C@@H](NC(=O)c4ccccc4)c4ccccc4)C(C)=C1C3(C)C)[C@]1(OC(C)=O)CO[C@@H]1C[C@@H]2O [paclitaxel]
effect on tumor growth (MCF-7 xenografts): only marginally effective
effect on the viability of cells (NCl/ADR-RES cells [2]): no significant effect on the viability of cells
inhibition of cell proliferation (MCF-7 cells): marginal but significant (P<0.05) inhibition of cell proliferation

C[C@@H]1C[C@H]2[C@@H]3CCC4=CC(=O)C=C[C@]4(C)[C@@]3(F)[C@@H](O)C[C@]2(C)[C@@]1(O)C(=O)CO [dexamethasone]
cytotoxicity / inhibition of cell proliferation [3]: transient cytotoxicity
duration of cytotoxicity [3]: up to 5 days
